After the bases stand the sugars from the 5' end (letter, count) and the backbone: PS all phosphorothioate, else s phosphorothioate and o phosphodiester by linkage. Methylation of C is not given here. l = locked nucleic acid (LNA); d = 2'-deoxy (DNA)
Biological target: SNHG14
Conditions: ASO
[1] = Mouse Primary Neuronal Cell, 0.005 µM

Row | Sequence | target mRNA inhibition (Human Neuronal Cell, 0.2 µM) [%] | target mRNA inhibition (Human Neuronal Cell, 1 µM) [%] | target mRNA inhibition (Human Neuronal Cell, 7.5 µM) [%] | also measured
1 | CATTATATTTAAACTATCA (sugars l4 d13 l2, PS) | 8 | 15 | – | –
2 | CATTATTAACCACCTT (sugars l2 d10 l4, PS) | 54 | 59 | – | –
3 | CATTTCATATTACTAACT (sugars l3 d12 l3, PS) | 10 | 18 | – | –
4 | CCAAACTGTCTTCTAAT (sugars l2 d11 l4, PS) | 23 | 26 | – | –
5 | CCAGACTCCAATATTT (sugars l4 d10 l2, PS) | 55 | 39 | – | –
6 | CCAGCATATTATATAC (sugars l3 d10 l3, PS) | 27 | 23 | – | –
7 | CCATCTAATGATTATT (sugars l4 d10 l2, PS) | 26 | 21 | – | –
8 | CCATTCAATGATCACT (sugars l2 d10 l4, PS) | 52 | 45 | – | –
9 | CCATTTATTTCCATTTATTT (sugars lddlldldddddddddddll, PS) | – | – | 40 | –
10 | CCTACATCTCATACTT (sugars l2 d12 l2, PS) | -3 | -3 | – | target mRNA inhibition (Human Neuronal Cell, 5 µM): 11%
11 | CCTACATCTCATACTTGC (sugars l2 d14 l2, PS) | 4 | 21 | – | target mRNA inhibition (Human Neuronal Cell, 5 µM): 25%; target mRNA inhibition [1]: 92.2%
12 | CCTATGTTAATACTTTC (sugars l4 d11 l2, PS) | 35 | 47 | – | –
13 | CCTTCCCTTTGATAAC (sugars l3 d11 l2, PS) | 28 | 55 | – | –
14 | CCTTTAGCATTTCTATT (sugars l2 d11 l4, PS) | 38 | 59 | – | –
15 | CCTTTCATTAACATTTA (sugars l3 d11 l3, PS) | 46 | 52 | – | –
16 | CTACAAATTCAATTTACT (sugars l2 d12 l4, PS) | 3 | 10 | – | –
17 | CTACATCTCATACTTGC (sugars l2 d12 l3, PS) | – | – | – | target mRNA inhibition [1]: 97%
18 | CTACTAAACATACACAT (sugars l3 d11 l3, PS) | 34 | 45 | – | –
19 | CTATGTTAATACTTTC (sugars l4 d10 l2, PS) | 26 | 31 | – | –
20 | CTCAAAGATCATTCTCA (sugars l1 d1 l3 d8 l4, PS) | – | – | 66 | –
21 | CTCATACTTGCTTTAAT (sugars l4 d11 l2, PS) | 7 | 13 | – | target mRNA inhibition (Human Neuronal Cell, 5 µM): 26%; target mRNA inhibition [1]: 96.4%

Row | Sequence | target mRNA inhibition (Human Neuronal Cell, 0.2 µM) [%] | target mRNA inhibition (Human Neuronal Cell, 1 µM) [%] | target mRNA inhibition (Human Neuronal Cell, 7.5 µM) [%] | also measured
22 | CTCATCCCTCCAAGAAA (sugars l2 d13 l2, PS) | 5 | -16 | – | target mRNA inhibition (Human Neuronal Cell, 5 µM): -5%; target mRNA inhibition [1]: 88.8%
23 | CTCCAACATAGATCCT (sugars l3 d10 l3, PS) | 44 | 54 | – | –
24 | CTCTCCTCAAGATCAA (sugars l3 d10 l3, PS) | 37 | 49 | – | –
25 | CTGTTTATACCCTTTCCA (sugars l1 d1 l1 d13 l2, PS) | – | – | 50 | –
26 | CTGTTTATACCCTTTCCA (sugars l1 d2 l1 d12 l2, PS) | – | – | 56 | –
27 | CTTCCCTTTGATAACAT (sugars l3 d11 l3, PS) | 20 | 43 | – | –
28 | CTTTAATGCTTCTAACT (sugars l4 d11 l2, PS) | 28 | 55 | – | –
29 | CTTTCCATTTATTTCCATT (sugars ldddddddddddldldlll, PS) | – | – | 66 | –
30 | CTTTCCATTTATTTCCATTT (sugars ldddldldddddddddddll, PS) | – | – | 53 | –
31 | GAATTTCAACTACTAT (sugars l2 d10 l4, PS) | 34 | 45 | – | –
32 | GATCATTCTCAACAATT (sugars l1 d1 l3 d7 l5, PS) | – | – | 22 | –
33 | GATCATTCTCAACAATT (sugars l2 d1 l2 d7 l5, PS) | – | – | 25 | –
34 | GATCATTCTCAACAATT (sugars l5 d7 l1 d2 l2, PS) | – | – | 34 | –
35 | GATCATTCTCAACAATTA (sugars l2 d1 l2 d10 l3, PS) | – | – | 57 | –
36 | GATCATTCTCAACAATTA (sugars l2 d3 l1 d6 l6, PS) | – | – | 33 | –
37 | GATCATTCTCAACAATTA (sugars llddllddddddllddll, PS) | – | – | 49 | –
38 | GATCATTCTCAACAATTAA (sugars lddlldddddddlddllll, PS) | – | – | 55 | –
39 | GATCATTCTCAACAATTAA (sugars lldddlddddddlldllll, PS) | – | – | 39 | –
40 | GATCATTCTCAACAATTAA (sugars lllllddddddddldldll, PS) | – | – | 5 | –
41 | GCAACATTATTAACCACCT (sugars lddddlddddddldddlll, PS) | – | – | 42 | –
42 | GCAACATTATTAACCACCT (sugars ldlddddddddddddldll, PS) | – | – | 58 | –

Row | Sequence | target mRNA inhibition (Human Neuronal Cell, 0.2 µM) [%] | target mRNA inhibition (Human Neuronal Cell, 1 µM) [%] | target mRNA inhibition (Human Neuronal Cell, 7.5 µM) [%] | also measured
43 | GCAACATTATTAACCACCT (sugars lldddlddddddlddddll, PS) | – | – | 45 | –
44 | GCACATTCTTTCTATAC (sugars l2 d2 l1 d9 l3, PS) | – | – | 62 | –
45 | GCACATTCTTTCTATAC (sugars l2 d9 l1 d3 l2, PS) | – | – | 48 | –
46 | GCACATTCTTTCTATAC (sugars l3 d11 l3, PS) | 39 | 59 | – | –
47 | GCACATTCTTTCTATAC (sugars ldlldddddddlddlll, PS) | – | – | 51 | –
48 | GCACATTCTTTCTATAC (sugars ldlllddddddllddll, PS) | – | – | 34 | –
49 | GCACATTCTTTCTATACCT (sugars l1 d3 l1 d12 l2, PS) | – | – | 48 | –
50 | GCATTCAACCCTAATC (sugars l4 d10 l2, PS) | 46 | 47 | – | –
51 | GCCACAACATCTATTT (sugars l4 d10 l2, PS) | 37 | 38 | – | –
52 | GTACTTACACATCTAT (sugars l2 d10 l4, PS) | 45 | 26 | – | –
53 | GTATTTACTCTTTACCT (sugars l3 d11 l3, PS) | 41 | 35 | – | –
54 | GTTCTACTATACTTTC (sugars l4 d10 l2, PS) | 61 | 66 | – | –
55 | GTTCTACTATACTTTCCT (sugars l1 d2 l1 d11 l3, PS) | – | – | 62 | –
56 | GTTCTACTATACTTTCCT (sugars l1 d4 l1 d9 l3, PS) | – | – | 57 | –
57 | GTTCTACTATACTTTCCT (sugars lddldddddddddlddll, PS) | – | – | 58 | –
58 | GTTCTACTATACTTTCCT (sugars lddldlddddddddddll, PS) | – | – | 56 | –
59 | GTTCTACTATACTTTCCT (sugars lddldldddddddlddll, PS) | – | – | 55 | –
60 | GTTCTACTATACTTTCCTC (sugars lddddddddddddldldll, PS) | – | – | 56 | –
61 | GTTTATACCCTTTCCAAT (sugars ldldldddddddddldll, PS) | – | – | 57 | –
62 | GTTTCCATCTACTATTA (sugars l2 d11 l4, PS) | 60 | 75 | – | –

— the OligoGym collection
